The nature of data set [1]: Terminal half-life of daunorubicin following intravenous daunorubicin at 1.2 mg.Kg-1 dose in dog. Also on record: dose 1.2 mg.Kg-1, dosed compound id 2.46809e+06, dosed compound name Daunorubicin, route intravenous. The note with it: Beagle, plasma. The data set is classed as ADME, organism-based, Canis lupus familiaris.
Data set [2] can be described thus: Volume of distribution of daunorubicin following intravenous daunorubicin at 1.2 mg.Kg-1 dose in dog. The data set is classed as ADME, organism-based, Canis lupus familiaris. Also on record: dose 1.2 mg.Kg-1, dosed compound id 2.46809e+06, dosed compound name Daunorubicin, route intravenous. The note with it: Beagle, plasma.
A short description of data set [3]: Plasma clearance of daunorubicin following intravenous daunorubicin at 1.2 mg.Kg-1 dose in dog. The note with it: Beagle, read-out: Clp. Details: dose 1.2 mg.Kg-1, dosed compound id 2.46809e+06, dosed compound name Daunorubicin, route intravenous. It is filed as ADME, organism-based, Canis lupus familiaris.
Data set [4] in a line: AUC (2-8 h) of ADR-529 following intravenous ADR-529 at 20 mg.Kg-1 dose administered approximately 25 minute prior to epirubicin once weekly for four weeks in dog. The note with it: Beagle, plasma. The data set is classed as ADME, organism-based, Canis lupus familiaris. Also on record: dose 20 mgKg-1, dosed compound id 2.4681e+06, dosed compound name Dexrazoxane, dose level High, route intravenous, sampling time 8 h, study doses 5/10/20 mgKg-1.

Data set [5] is described as follows: Mean terminal half-life for ADR-529 following intravenous epirubicin at 1 mg.Kg-1 dose administered approximately 25 minute prior to epirubicin once weekly for four weeks in dog. The data set is classed as ADME, organism-based, Canis lupus familiaris. The note with it: Beagle, plasma.
The nature of data set [6]: Mean terminal half-life for ADR-529 following intravenous epirubicin at 0.5 mg.Kg-1 dose administered approximately 25 minute prior to epirubicin once weekly for four weeks in dog. The note with it: Beagle, plasma. The data set is classed as ADME, organism-based, Canis lupus familiaris.
The nature of data set [7]: AUC (2-8 h) of ADR-529 following intravenous ADR-529 at 10 mg.Kg-1 dose administered approximately 25 minute prior to epirubicin once weekly for four weeks in dog. It is filed as ADME, organism-based, Canis lupus familiaris. The note with it: Beagle, plasma. Details: dose 10 mgKg-1, dosed compound id 2.4681e+06, dosed compound name Dexrazoxane, dose level Intermediate, route intravenous, sampling time 8 h, study doses 5/10/20 mgKg-1.

Data set [8] in a line: Detection of doxorubicinol in plasma following single intravenous doxorubicin at 10 mg.Kg-1 dose in female mouse bearing colon tumor. It is filed as ADME, organism-based, BALB/c. Details: dose 10 mg.Kg-1, dosed compound id 2.46809e+06, dosed compound name Doxorubicin, gender F, regimen Single, route intravenous, sampling time 48 h. The note with it: in vivo.
A short description of data set [9]: Detection of doxorubicinol in heart following single intravenous doxorubicin at 10 mg.Kg-1 dose in female mouse bearing colon tumor. The data set is classed as ADME, organism-based, BALB/c. Details: dose 10 mg.Kg-1, dosed compound id 2.46809e+06, dosed compound name Doxorubicin, gender F, regimen Single, route intravenous, sampling time 48 h. The note with it: in vivo.

The nature of data set [10]: (§1) Urinary elimination of adriamycinol following intravenous bolus adriamycin at 10 mg.Kg-1 dose in rat. The data set is classed as ADME, organism-based, SD, Urine. Details: dose 10 mg.Kg-1, dosed compound id 2.46809e+06, dosed compound name Doxorubicin, route intravenous, sampling time 0-24 h. The note with it: in vivo.
Data set [11] can be described thus: Recovery of doxorubicinol following intravenous epirubicin at 4 mg.Kg-1 dose in rabbit. The data set is classed as ADME, organism-based, Oryctolagus cuniculus, New Zealand White, Plasma. The note with it: in vivo.
Data set [12] in a line: AUC values (0-48 h) of doxorubicinol in tumor following single intravenous doxorubicin at 10 mg.Kg-1 dose in female mouse bearing colon tumor. The data set is classed as ADME, organism-based, BALB/c, Neoplasm. Also on record: time < 48 hr, dose 10 mg.Kg-1, dosed compound id 2.46809e+06, dosed compound name Doxorubicin, gender F, regimen Single, route intravenous, sampling time 48 h. The note with it: in vivo.

The nature of data set [13]: AUC values (0-48 h) of doxorubicinol in plasma following single intravenous doxorubicin at 10 mg.Kg-1 dose in female mouse bearing colon tumor. It is filed as ADME, organism-based, BALB/c. Also on record: time < 48 hr, dose 10 mg.Kg-1, dosed compound id 2.46809e+06, dosed compound name Doxorubicin, gender F, regimen Single, route intravenous, sampling time 48 h. The note with it: in vivo.

Data set [14] in a line: as §1. It is filed as ADME, organism-based, SD, Urine. Also on record: dose 10 mg.Kg-1, dosed compound id 2.46809e+06, dosed compound name Doxorubicin, route intravenous, sampling time 0-60 h. The note with it: in vivo.
A short description of data set [15]: as §1. Details: dose 10 mg.Kg-1, dosed compound id 2.46809e+06, dosed compound name Doxorubicin, route intravenous, sampling time 0-6 h. It is filed as ADME, organism-based, SD, Urine. The note with it: in vivo.
The nature of data set [16]: Detection of doxorubicinol in tumor following single intravenous doxorubicin at 10 mg.Kg-1 dose in female mouse bearing colon tumor. It is filed as ADME, organism-based, BALB/c, Neoplasm. Details: dose 10 mg.Kg-1, dosed compound id 2.46809e+06, dosed compound name Doxorubicin, gender F, regimen Single, route intravenous, sampling time 48 h. The note with it: in vivo.

Data set [17] in a line: Recovery of doxorubicinol following intraperitoneal epirubicin at 4 mg.Kg-1 dose in mouse. The data set is classed as ADME, organism-based, CD-1, Plasma. The note with it: in vivo, ip.
The nature of data set [18]: Recovery of doxorubicinol following intravenous epirubicin at 4 mg.Kg-1 dose in rat. It is filed as ADME, organism-based, SD, Plasma. The note with it: in vivo.
Data set [19] in a line: Recovery of doxorubicinol following intravenous epirubicin at 1.5 mg.Kg-1 dose in man. The data set is classed as ADME, organism-based, Plasma. The note with it: human, in vivo.
The nature of data set [20]: Terminal half-life of doxorubicinol following intravenous doxorubicinol at 1.27 mg.Kg-1 dose in dog. It is filed as ADME, organism-based, Canis lupus familiaris, Beagle, Plasma. Also on record: dose 1.27 mg.Kg-1, dosed compound id 2.4681e+06, dosed compound name Doxorubicinol, route intravenous. The note with it: in vivo.
A short description of data set [21]: Recovery of doxorubicinol following intraperitoneal epirubicin at 4 mg.Kg-1 dose in hamster. The data set is classed as ADME, organism-based, Cricetulus griseus, Plasma. The note with it: chinese hamster, in vivo, ip.
Data set [22] can be described thus: AUC values (0-48 h) of doxorubicinol in heart following single intravenous doxorubicin at 10 mg.Kg-1 dose in female mouse bearing colon tumor. It is filed as ADME, organism-based, BALB/c. Also on record: time < 48 hr, dose 10 mg.Kg-1, dosed compound id 2.46809e+06, dosed compound name Doxorubicin, gender F, regimen Single, route intravenous, sampling time 48 h. The note with it: in vivo.

Usually half-life stands for how long it takes for the measured level to halve. A word on the Vd: it is a proportionality between amount in the body and measured concentration, not a real space. Read a high Vd as wide distribution into tissue. `COc1cccc2c1C(=O)c1c(O)c3c(c(O)c1C2=O)C[C@@](O)(C(C)=O)C[C@@H]3O[C@H]1C[C@H](N)[C@H](O)[C@H](C)O1` [DAUNORUBICIN] displayed a half-life in [1] of 5.3 min. In data set [2], this compound yielded a Vd of 51 L/kg. For the same compound, in data set [3], the clearance was 2030 mL/min.

On to `C[C@@H](CN1CC(=O)NC(=O)C1)N1CC(=O)NC(=O)C1` [DEXRAZOXANE], for which the AUC came to 5570 ng·h/mL in data set [4] and 2710 ng·h/mL in [7]. Further, the half-life is 1.2 h in data set [5] and 1.8 h in [6].

With `COc1cccc2c1C(=O)c1c(O)c3c(c(O)c1C2=O)C[C@@](O)(C(O)CO)C[C@@H]3O[C@H]1C[C@H](N)[C@H](O)[C@H](C)O1` (some centres not stated), the Compound recovery entry is on record as “OUTCOME = Observed” in data set [8]; “OUTCOME = Observed” in [9]; 0.26% in data set [10]; 0.3 10^-9M in data set [11]; 0.3% in [14]; 0.22% in [15]. In addition, the Compound recovery result in data set [16] is “OUTCOME = Not detected/not observed”; in data set [17], 0 10^-9M; in data set [18], 0.6 10^-9M; in data set [19], 1 10^-9M; in data set [21], 0.1 10^-9M. Besides, the AUC was 0 nmol·min/g in data set [12], 1.7 nmol·min/mL in data set [13] and 228 nmol·min/g in data set [22]. For the same compound, the t1/2 entry in [20] is recorded as “VALUE = Shorter than doxorubicin”.

The values above are taken from ChEMBL document CHEMBL3508140 (2016).
